Values joined by “and” are separate entries in the source; they are usually repeats but may differ in a detail not shown here. Equal values may be shown once. Square brackets hold non-standard residues; d marks the D form. Peptide text beside a SMILES is read from it. ξ: configuration not given here. Ac5c = NC1(C(=O)O)CCCC1; ξS = NC(CO)C(=O)O
Test system: Swiss mice, Sarcoma 180 sc, mean tumor weight T/C
Assay: NCI In Vivo Anticancer Drug Screen. Data for tumor model Sarcoma 180 (subcutaneous) in Swiss mice
Conditions: endpoint: mean tumor weight, higher = larger tumour
Method: The antitumor activity of compounds was measured in mice bearing transplantable tumors. Survival or tumor size were measured and the results are expressed as the measurement made in the treated group (T) divided by the measurement made in the vehicle treated control group (C). The tumor model used in this assay is Sarcoma 180 (subcutaneous) in Swiss mice

[1] = dose: 12.5 mg/kg/injection, schedule: Q01DX007 (ip), vehicle: saline
[2] = dose: 5.0 mg/kg/injection, schedule: Q01DX007 (ip), vehicle: carboxymethylcellulose (CMC)
[3] = dose: 250.0 mg/kg/injection, schedule: Q01DX007 (ip), vehicle: carboxymethylcellulose (CMC)
[4] = dose: 125.0 mg/kg/injection, schedule: Q01DX007 (ip), vehicle: carboxymethylcellulose (CMC)

## CSc1ncnc2c1ncn2C1OC(CO)C(O)C1O (stereo not drawn)
[1]
  T/C: 72 % of control
dose: 15.0 mg/kg/injection, schedule: Q01DX007 (ip), vehicle: saline
  T/C: 88 % of control
dose: 17.5 mg/kg/injection, schedule: Q01DX007 (ip), vehicle: saline
  T/C: 94 % of control
dose: 20.0 mg/kg/injection, schedule: Q01DX007 (ip), vehicle: saline
  T/C: 73 % of control

## CCOC(=O)C(N)Cc1ccc(N(CCCl)CCCl)cc1 (stereo not drawn)
dose: 1.4 mg/kg/injection, schedule: Q01DX007 (ip), vehicle: saline
  T/C: 41 % of control
dose: 2.7 mg/kg/injection, schedule: Q01DX007 (ip), vehicle: saline
  T/C: 93 % of control
dose: 4.1 mg/kg/injection, schedule: Q01DX007 (ip), vehicle: saline
  T/C: 9 % of control
[2]
  T/C: 90 % of control
dose: 5.5 mg/kg/injection, schedule: Q01DX007 (ip), vehicle: saline
  T/C: 32 % of control and 49 % of control
dose: 8.0 mg/kg/injection, schedule: Q01DX007 (ip), vehicle: carboxymethylcellulose (CMC)
  T/C: 83 % of control
dose: 8.3 mg/kg/injection, schedule: Q01DX007 (ip), vehicle: saline
  T/C: 15 % of control and 20 % of control
dose: 12.0 mg/kg/injection, schedule: Q01DX007 (ip), vehicle: carboxymethylcellulose (CMC)
  T/C: 59 % of control
[1]
  T/C: 7 % of control
dose: 18.0 mg/kg/injection, schedule: Q01DX007 (ip), vehicle: carboxymethylcellulose (CMC)
  T/C: 29 % of control and 42 % of control
dose: 27.0 mg/kg/injection, schedule: Q01DX007 (ip), vehicle: carboxymethylcellulose (CMC)
  T/C: 15 % of control

## CC1CN1C(=O)Nc1cccc2c(NC(=O)N3CC3C)cccc12 (stereo not drawn)
dose: 9.5 mg/kg/injection, schedule: Q#A X014 (ip), vehicle: methylcellulose (MC)
  T/C: 66 % of control
dose: 14.0 mg/kg/injection, schedule: Q#A X014 (ip), vehicle: methylcellulose (MC)
  T/C: 62 % of control
dose: 20.5 mg/kg/injection, schedule: Q#A X014 (ip), vehicle: methylcellulose (MC)
  T/C: 31 % of control
dose: 21.0 mg/kg/injection, schedule: Q#A X014 (ip), vehicle: methylcellulose (MC)
  T/C: 35 % of control
dose: 31.5 mg/kg/injection, schedule: Q#A X014 (ip), vehicle: methylcellulose (MC)
  T/C: 23 % of control
dose: 35.0 mg/kg/injection, schedule: Q01DX007 (ip), vehicle: carboxymethylcellulose (CMC)
  T/C: 50 % of control
dose: 35.0 mg/kg/injection, schedule: Q01DX007 (ip), vehicle: saline
  T/C: 53 % of control
dose: 47.0 mg/kg/injection, schedule: Q#A X014 (ip), vehicle: methylcellulose (MC)
  T/C: 7 % of control
dose: 53.0 mg/kg/injection, schedule: Q01DX007 (ip), vehicle: saline
  T/C: 46 % of control
dose: 80.0 mg/kg/injection, schedule: Q01DX007 (ip), vehicle: saline
  T/C: 35 % of control

## NC(CO)C(=O)NC1(C(=O)O)CCCC1 (stereo not drawn) (H-[ξS]-[Ac5c]-OH)
dose: 110.0 mg/kg/injection, schedule: Q01DX007 (ip), vehicle: carboxymethylcellulose (CMC)
  T/C: 84 % of control
dose: 167.0 mg/kg/injection, schedule: Q01DX007 (ip), vehicle: carboxymethylcellulose (CMC)
  T/C: 49 % of control
[3]
  T/C: 21 % of control

## COc1ccc(C[C@H](N)C(=O)NC2C(CO)OC(n3cnc4c(N(C)C)ncnc43)C2O)cc1 (stereo partly drawn)
dose: 12.5 mg/kg/injection, schedule: Q#A X014 (ip), vehicle: carboxymethylcellulose (CMC)
  T/C: 106 % of control
dose: 13.12 mg/kg/injection, schedule: Q01DX007 (ip), vehicle: carboxymethylcellulose (CMC)
  T/C: 65 % of control
dose: 26.25 mg/kg/injection, schedule: Q01DX007 (ip), vehicle: carboxymethylcellulose (CMC)
  T/C: 105 % of control
dose: 52.5 mg/kg/injection, schedule: Q01DX007 (ip), vehicle: carboxymethylcellulose (CMC)
  T/C: 66 % of control
dose: 105.0 mg/kg/injection, schedule: Q01DX007 (ip), vehicle: carboxymethylcellulose (CMC)
  T/C: 80 % of control

## CNCc1ccccc1
dose: 146.5 mg/kg/injection, schedule: Q01DX007 (ip), vehicle: carboxymethylcellulose (CMC)
  T/C: 91 % of control

## Nc1ccc2c(c1)Cc1cc(NC=O)ccc1-2
dose: 55.5 mg/kg/injection, schedule: Q01DX007 (ip), vehicle: carboxymethylcellulose (CMC)
  T/C: 98 % of control
dose: 83.3 mg/kg/injection, schedule: Q01DX007 (ip), vehicle: carboxymethylcellulose (CMC)
  T/C: 52 % of control
[4]
  T/C: 72 % of control
dose: 187.5 mg/kg/injection, schedule: Q01DX007 (ip), vehicle: carboxymethylcellulose (CMC)
  T/C: 36 % of control

## CC(=O)[C@@]1(O)[C@H](C)C[C@H]2[C@@H]3C=C(C)C4=Cc5c(cnn5-c5ccccc5)C[C@]4(C)[C@H]3[C@@H](O)C[C@@]21C
dose: 0.11 mg/kg/injection, schedule: Q01DX007 (sc), vehicle: steriod suspending solution
  T/C: 95 % of control
dose: 0.17 mg/kg/injection, schedule: Q01DX007 (sc), vehicle: steriod suspending solution
  T/C: 84 % of control
dose: 0.75 mg/kg/injection, schedule: Q01DX007 (sc), vehicle: steriod suspending solution
  T/C: 22 % of control and 42 % of control
dose: 1.0 mg/kg/injection, schedule: Q01DX007 (sc), vehicle: steriod suspending solution
  T/C: 21 % of control
dose: 2.0 mg/kg/injection, schedule: Q01DX007 (sc), vehicle: steriod suspending solution
  T/C: 23 % of control
dose: 4.0 mg/kg/injection, schedule: Q01DX007 (sc), vehicle: steriod suspending solution
  T/C: 9 % of control

## O=[N+]([O-])c1ccc(C=Nc2ccc3c(c2)C(Br)c2ccccc2-3)cc1 (stereo not drawn)
dose: 55.0 mg/kg/injection, schedule: Q#A X014 (ip), vehicle: saline
  T/C: 56 % of control
dose: 83.0 mg/kg/injection, schedule: Q#A X014 (ip), vehicle: saline
  T/C: 30 % of control and 37 % of control
dose: 110.0 mg/kg/injection, schedule: Q01DX007 (ip), vehicle: saline
  T/C: 88 % of control
dose: 125.0 mg/kg/injection, schedule: Q#A X014 (ip), vehicle: saline
  T/C: 28 % of control and 37 % of control
dose: 166.0 mg/kg/injection, schedule: Q01DX007 (ip), vehicle: saline
  T/C: 85 % of control
dose: 187.5 mg/kg/injection, schedule: Q#A X014 (ip), vehicle: saline
  T/C: 18 % of control
dose: 250.0 mg/kg/injection, schedule: Q01DX007 (ip), vehicle: saline
  T/C: 94 % of control
dose: 375.0 mg/kg/injection, schedule: Q01DX007 (ip), vehicle: saline
  T/C: 61 % of control

## Cc1cc(NC(=O)c2ccc(N)cc2)ccc1N=Nc1ccc(N=Nc2ccc3c(O)cc(S(=O)(=O)O)cc3c2)c2cc(S(=O)(=O)O)ccc12
dose: 12.5 mg/kg/injection, schedule: Q01DX007 (ip), vehicle: water
  T/C: 110 % of control
dose: 25.0 mg/kg/injection, schedule: Q01DX007 (ip), vehicle: water
  T/C: 97 % of control
dose: 50.0 mg/kg/injection, schedule: Q01DX007 (ip), vehicle: water
  T/C: 62 % of control

## O=C(O)O.[Cd]
[2]
  T/C: 69 % of control

## Cc1n[nH]c(=O)[nH]c1=O
dose: 500.0 mg/kg/injection, schedule: Q01DX007 (ip), vehicle: other
  T/C: 95 % of control
dose: 750.0 mg/kg/injection, schedule: Q01DX007 (ip), vehicle: other
  T/C: 83 % of control

## O=C1Nc2ccccc2/C1=C/c1cccnc1
dose: 62.5 mg/kg/injection, schedule: Q01DX007 (ip), vehicle: carboxymethylcellulose (CMC)
  T/C: 100 % of control
[4]
  T/C: 79 % of control
[3]
  T/C: 43 % of control

## CCc1nc(N)nc(N)c1-c1ccc(Cl)c(Cl)c1.[Cl][Pd][Cl]
dose: 6.6 mg/kg/injection, schedule: Q01DX007 (ip), vehicle: carboxymethylcellulose (CMC)
  T/C: 95 % of control
dose: 8.0 mg/kg/injection, schedule: Q01DX007 (ip), vehicle: methylcellulose (MC)
  T/C: 111 % of control
dose: 10.0 mg/kg/injection, schedule: Q01DX007 (ip), vehicle: carboxymethylcellulose (CMC)
  T/C: 49 % of control
dose: 15.0 mg/kg/injection, schedule: Q01DX007 (ip), vehicle: carboxymethylcellulose (CMC)
  T/C: 35 % of control
dose: 15.0 mg/kg/injection, schedule: Q01DX007 (ip), vehicle: methylcellulose (MC)
  T/C: 55 % of control
dose: 22.5 mg/kg/injection, schedule: Q01DX007 (ip), vehicle: carboxymethylcellulose (CMC)
  T/C: 34 % of control
dose: 30.0 mg/kg/injection, schedule: Q01DX007 (ip), vehicle: methylcellulose (MC)
  T/C: 51 % of control

— PubChem BioAssay AID342 (DTP/NCI, 2004)
